Among the data in patent US9920075B2, “Triazolopyridine and triazolopyrimidine inhibitors of myeloperoxidase” (BRISTOL-MYERS SQUIBB COMPANY, priority 2014, dated 2018) are IC50 values, retold here.

Values joined by “and” are separate entries in the source; they are usually repeats but may differ in a detail not shown here. Identical values can stand only once.

One assay deals with T1, myeloperoxidase (MPO) (Homo sapiens, UniProt P05164).
T1 sequence (P05164 49-745): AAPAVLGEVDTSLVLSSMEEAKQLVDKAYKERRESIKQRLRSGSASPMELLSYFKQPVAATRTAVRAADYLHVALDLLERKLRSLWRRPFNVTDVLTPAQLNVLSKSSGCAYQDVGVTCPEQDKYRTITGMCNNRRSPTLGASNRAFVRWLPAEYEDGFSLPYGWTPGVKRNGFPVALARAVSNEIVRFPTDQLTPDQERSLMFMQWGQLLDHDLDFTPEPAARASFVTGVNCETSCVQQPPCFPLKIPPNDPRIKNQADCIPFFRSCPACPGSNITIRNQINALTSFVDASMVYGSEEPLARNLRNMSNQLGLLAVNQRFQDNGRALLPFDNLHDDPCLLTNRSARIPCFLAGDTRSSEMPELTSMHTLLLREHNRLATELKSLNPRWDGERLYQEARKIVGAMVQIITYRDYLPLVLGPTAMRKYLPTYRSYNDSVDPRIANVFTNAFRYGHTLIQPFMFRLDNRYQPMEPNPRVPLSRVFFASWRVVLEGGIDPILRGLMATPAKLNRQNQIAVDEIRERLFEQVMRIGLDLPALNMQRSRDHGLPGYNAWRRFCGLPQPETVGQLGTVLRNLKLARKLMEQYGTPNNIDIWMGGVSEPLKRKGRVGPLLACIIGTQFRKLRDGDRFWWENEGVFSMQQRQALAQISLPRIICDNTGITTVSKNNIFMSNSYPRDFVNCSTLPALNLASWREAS
Description: MPO peroxidation assay (Amplex Red assay). It counts as biochemical. To be noted: MPO peroxidation (Amplex Red), ranges given; read-out: MPO peroxidation assay IC50 values (binned). The protocol:
MPO Peroxidation Assay (Amplex Red Assay)
MPO peroxidation activity was measured in 100 mM KPi (pH 7.4) by utilizing the non-fluorescent reagent Amplex Red (Invitrogen Cat. #A12222) which can be oxidized to the highly fluorescent resorufin. Amplex Red is oxidized by the peroxidase action of MPO to resorufin. […] Enzyme and compound were preincubated for ten minutes at room temperature.
After the ten minute preincubation, 25 μL of an Amplex Red mixture containing 200 μM Amplex Red and 10 mM H2O2 was added to the plate.
IC50 values were calculated by determining the slope of the linear portion of the kinetic trace (180-540 secs), and using that calculated slope to determine % inhibition occurring at each concentration of inhibitor using the following equation:
[formula] where A=minimal Y value (activity level of inhibited sample), B=maximal Y value (activity level of uninhibited sample), C=Log IC50, D=Hill Slope, x=concentration of inhibitor. MPO Chlorination Assay (APF Assay)
By IC50 is commonly meant the concentration that gives 50% inhibition. Turning to `COCc1nn(-c2ccccc2)nc1COc1cc(N)nc2[nH]nnc12` [Example 56, 7-((5-(Methoxymethyl)-2-phenyl-2H-1,2,3-triazol-4-yl)methoxy)-3H-[1,2,3]triazolo[4,5-b]pyridin-5-amine], the IC50 lay within 60 to 150 nM. The same measure, in the same setting: the result for `Cc1nn(-c2ccc(Br)cc2)nc1COc1cc(N)nc2[nH]nnc12` [Example 58, 7-((2-(4-Bromophenyl)-5-methyl-2H-1,2,3-triazol-4-yl)methoxy)-3H-[1,2,3]triazolo[4,5-b]pyridin-5-amine] reads 150 to 1000 nM; that for `Cc1nn(-c2ccc(N3CCNCC3)cc2)nc1COc1cc(N)nc2[nH]nnc12` [Example 63, 7-((5-Methyl-2-(4-(piperazin-1-yl)phenyl)-2H-1,2,3-triazol-4-yl)methoxy)-3H-[1,2,3]triazolo[4,5-b]pyridin-5-amine], 60 to 150 nM; that for `N#Cc1nn(-c2ccccc2)nc1COc1cc(N)nc2[nH]nnc12` [Example 65, 5-(((5-Amino-3H-[1,2,3]triazolo[4,5-b]pyridin-7-yl)oxy)methyl)-2-phenyl-2H-1,2,3-triazole-4-carbonitrile], at most 60 nM. Turning to `Cc1nn(Cc2ccccc2)nc1COc1cc(N)nc2[nH]nnc12` [Example 66, 7-((2-Benzyl-5-methyl-2H-1,2,3-triazol-4-yl)methoxy)-3H-[1,2,3]triazolo [4,5-b]pyridin-5-amine], the half-inhibitory concentration (IC50) was at most 60 nM. Regarding `Cc1nn(C2CCNCC2)nc1COc1cc(N)nc2[nH]nnc12` [Example 68, 7-((5-Methyl-2-(piperidin-4-yl)-2H-1,2,3-triazol-4-yl)methoxy)-3H-[1,2,3]triazolo[4,5-b]pyridin-5-amine], the 50% inhibitory concentration (IC50) fell in the range of 60 to 150 nM. As for `Cc1nn(CC2CCNC2)nc1COc1cc(N)nc2[nH]nnc12` (stereo not shown) [Example 69, 7-((5-Methyl-2-(pyrrolidin-3-ylmethyl)-2H-1,2,3-triazol-4-yl)methoxy)-3H-[1,2,3]triazolo[4,5-b]pyridin-5-amine], the IC50 lay in the range of 150 to 1000 nM. Same read-out and setting: the result for `Cc1nn(Cc2c[nH]cn2)nc1COc1cc(N)nc2[nH]nnc12` [Example 71, 7-((2-((1H-Imidazol-4-yl)methyl)-5-methyl-2H-1,2,3-triazol-4-yl)methoxy)-3H-[1,2,3]triazolo[4,5-b]pyridin-5-amine] reads 60 to 150 nM and 150 to 1000 nM; that for `Cc1nn(C[C@@H]2C[C@H](Oc3ccccc3)CN2)nc1COc1cc(N)nc2[nH]nnc12` [Example 73, 7-((5-Methyl-2-(((2S,4S)-4-phenoxypyrrolidin-2-yl)methyl)-2H-1,2,3-triazol-4-yl)methoxy)-3H-[1,2,3]triazolo[4,5-b]pyridin-5-amine], at most 60 nM; that for `Cc1nn(Cc2cccc(C3CCNCC3)c2)nc1COc1cc(N)nc2[nH]nnc12` [Example 78, 7-((5-Methyl-2-(3-(piperidin-4-yl)benzyl)-2H-1,2,3-triazol-4-yl)methoxy)-3H-[1,2,3]triazolo[4,5-b]pyridin-5-amine], at most 60 nM. On the same count and under the same terms, the result for `COc1ncc(Br)cc1COc1cc(N)nc2[nH]nnc12` [Example 81, 7-((5-Bromo-2-methoxypyridin-3-yl)methoxy)-3H-[1,2,3]triazolo[4,5-b]pyridin-5-amine] reads at most 60 nM. Turning to `Nc1cc(OCc2ccc(C(F)(F)F)o2)c2nn[nH]c2n1` [Example 82, 7-((5-(Trifluoromethyl)furan-2-yl)methoxy)-3H-[1,2,3]triazolo[4,5-b]pyridin-5-amine], the half-maximal inhibitory concentration (IC50) is at most 60 nM. For the molecule `Nc1cc(OCC2CCN(c3ncccn3)CC2)c2nn[nH]c2n1` [Example 84, 7-((1-(Pyrimidin-2-yl)piperidin-4-yl)methoxy)-3H-[1,2,3]triazolo[4,5-b]pyridin-5-amine], the half-inhibitory concentration (IC50) is 60 to 150 nM. On the same count and under the same terms, under `Nc1cc(OCc2ncc(Br)cc2F)c2nn[nH]c2n1` [Example 87, 7-((5-Bromo-3-fluoropyridin-2-yl)methoxy)-3H-[1,2,3]triazolo[4,5-b]pyridin-5-amine] stands at most 60 nM. Still for that read-out and setting: the result for `Nc1cc(OCc2cc(Cl)ncc2F)c2nn[nH]c2n1` [Example 88, 7-((2-Chloro-5-fluoropyridin-4-yl)methoxy)-3H-[1,2,3]triazolo[4,5-b]pyridin-5-amine] reads 60 to 150 nM; that for `Nc1cc(OCc2ncccc2F)c2nn[nH]c2n1` [Example 89, 7-((3-Fluoropyridin-2-yl)methoxy)-3H-[1,2,3]triazolo[4,5-b]pyridin-5-amine], at most 60 nM; that for `Nc1cc(OCc2cnccc2Cl)c2nn[nH]c2n1` [Example 91, 7-((4-Chloropyridin-3-yl)methoxy)-3H-[1,2,3]triazolo[4,5-b]pyridin-5-amine], 60 to 150 nM.

Regarding `Nc1cc(OCc2ccc(Br)cn2)c2nn[nH]c2n1` [Example 92, 7-((5-Bromopyridin-2-yl)methoxy)-3H-[1,2,3]triazolo[4,5-b]pyridin-5-amine], the IC50 fell in the range of 60 to 150 nM. Same read-out and setting: the result for `Cn1nc(COc2cc(N)nc3[nH]nnc23)cc1Br` [Example 93, 7-((5-Bromo-1-methyl-1H-pyrazol-3-yl)methoxy)-3H-[1,2,3]triazolo[4,5-b]pyridin-5-amine] reads at most 60 nM; that for `Nc1cc(OCc2nc(Br)ccc2F)c2nn[nH]c2n1` [Example 95, 7-((6-Bromo-3-fluoropyridin-2-yl)methoxy)-3H-[1,2,3]triazolo[4,5-b]pyridin-5-amine], at most 60 nM. Still for that read-out and setting: the result for `Cn1ccc(-c2ccc(F)c(COc3cc(N)nc4[nH]nnc34)n2)n1` [Example 96, 7-((3-Fluoro-6-(1-methyl-1H-pyrazol-3-yl)pyridin-2-yl)methoxy)-3H-[1,2,3]triazolo[4,5-b]pyridin-5-amine] reads at most 60 nM; that for `Nc1cc(OCc2nc(-c3ccc(N4CCNCC4)nc3)ccc2F)c2nn[nH]c2n1` [Example 97, 7-((5-fluoro-6′-(piperazin-1-yl)-[2,3′-bipyridin]-6-yl)methoxy)-3H-[1,2,3] triazolo[4,5-b]pyridin-5-amine], at most 60 nM. As for `Nc1cc(OCc2nc(-c3ccc(C4CC4)nc3)ccc2F)c2nn[nH]c2n1` [Example 98, 7-((6′-cyclopropyl-S-fluoro-[2,3′-bipyridin]-6-yl)methoxy)-3H-[1,2,3]triazolo[4,5-b] pyridin-5-amine], the IC50 was at most 60 nM. With `Nc1cc(OCc2ncc(-c3ccc(N4CCNCC4)nc3)cc2F)c2nn[nH]c2n1` [Example 99, 7-((5-fluoro-6′-(piperazin-1-yl)-[3,3′-bipyridin]-6-yl)methoxy)-3H-[1,2,3] triazolo[4,5-b]pyridin-5-amine], the IC50 was at most 60 nM. As for `Nc1cc(OCc2ncc(-c3ccc(C4CC4)nc3)cc2F)c2nn[nH]c2n1` [Example 101, 7-((6′-cyclopropyl-5-fluoro-[3,3′-bipyridin]-6-yl)methoxy)-3H-[1,2,3]triazolo[4,5-b] pyridin-5-amine], the IC50 was at most 60 nM. For `Cn1nc(COc2cc(N)nc3[nH]nnc23)cc1-c1ccc(CO)nc1` [Example 103, (5-(3-(((5-amino-3H-[1,2,3]triazolo[4,5-b]pyridin-7-yl)oxy)methyl)-1-methyl-1H-pyrazol-5-yl)pyridin-2-yl)methanol], the IC50 was 60 to 150 nM. On the same count and under the same terms, under `Cn1nc(COc2cc(N)nc3[nH]nnc23)cc1-c1ccc(N2CCNCC2)nc1` [Example 104, 7-((1-methyl-5-(6-(piperazin-1-yl)pyridin-3-yl)-1H-pyrazol-3-yl)methoxy)-3H-[1,2,3]triazolo[4,5-b]pyridin-5-amine] stands at most 60 nM.

As for `CN1CCN(c2ccc(-c3cc(COc4cc(N)nc5[nH]nnc45)nn3C)cn2)CC1` [Example 105, 7-((1-methyl-5-(6-(4-methylpiperazin-1-yl)pyridin-3-yl)-1H-pyrazol-3-yl)methoxy)-3H-[1,2,3]triazolo[4,5-b]pyridin-5-amine], the IC50 is at most 60 nM. The same measure, in the same setting: under `CN1CCN(c2ccc(-c3cnc(COc4cc(N)nc5[nH]nnc45)c(F)c3)cn2)CC1` [Example 107, 7-((5-fluoro-6′-(4-methylpiperazin-1-yl)-[3,3′-bipyridin]-6-yl)methoxy)-3H-[1,2,3] triazolo[4,5-b]pyridin-5-amine] stands at most 60 nM. Same read-out and setting: under `Nc1cc(OCc2ncc(-c3ccc(CO)nc3)cc2F)c2nn[nH]c2n1` [Example 108, (6′-(((5-amino-3H-[1,2,3]triazolo[4,5-b]pyridin-7-yl)oxy)methyl)-5′-fluoro-[3,3′-bipyridin]-6-yl)methanol] stands 60 to 150 nM.

The same assay, now with this note: MPO peroxidation assay IC50 values (binned), MPO peroxidation (Amplex Red), ranges given.
In the case of `Nc1cc(OCc2nn(-c3ccccc3)nc2CO)c2nn[nH]c2n1` [Example 64, (5-(((5-Amino-3H-[1,2,3]triazolo[4,5-b]pyridin-7-yl)oxy)methyl)-2-phenyl-2H-1,2,3-triazol-4-yl)methanol], the half-maximal inhibitory concentration (IC50) lay in the range of 60 to 150 nM.
